# Measured values taken from ChEMBL document CHEMBL1201862, “PubChem BioAssay data set” (2004).
# The source made the active and inactive calls.
# Key:
# [1] = biological target: T1, Short transient receptor potential channel 4 (Mus musculus, UniProt Q9QUQ5); assay: mouse TRPC4 channel inhibitors, dose response, cell-based, HEK293 TRPC4/mu-opioid, Fluo-4 calcium (AID 434942); assay type: functional;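 note: potency of inhibitors blocking the TRPC4 calcium response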
# T1 sequence (Q9QUQ5 whole entry): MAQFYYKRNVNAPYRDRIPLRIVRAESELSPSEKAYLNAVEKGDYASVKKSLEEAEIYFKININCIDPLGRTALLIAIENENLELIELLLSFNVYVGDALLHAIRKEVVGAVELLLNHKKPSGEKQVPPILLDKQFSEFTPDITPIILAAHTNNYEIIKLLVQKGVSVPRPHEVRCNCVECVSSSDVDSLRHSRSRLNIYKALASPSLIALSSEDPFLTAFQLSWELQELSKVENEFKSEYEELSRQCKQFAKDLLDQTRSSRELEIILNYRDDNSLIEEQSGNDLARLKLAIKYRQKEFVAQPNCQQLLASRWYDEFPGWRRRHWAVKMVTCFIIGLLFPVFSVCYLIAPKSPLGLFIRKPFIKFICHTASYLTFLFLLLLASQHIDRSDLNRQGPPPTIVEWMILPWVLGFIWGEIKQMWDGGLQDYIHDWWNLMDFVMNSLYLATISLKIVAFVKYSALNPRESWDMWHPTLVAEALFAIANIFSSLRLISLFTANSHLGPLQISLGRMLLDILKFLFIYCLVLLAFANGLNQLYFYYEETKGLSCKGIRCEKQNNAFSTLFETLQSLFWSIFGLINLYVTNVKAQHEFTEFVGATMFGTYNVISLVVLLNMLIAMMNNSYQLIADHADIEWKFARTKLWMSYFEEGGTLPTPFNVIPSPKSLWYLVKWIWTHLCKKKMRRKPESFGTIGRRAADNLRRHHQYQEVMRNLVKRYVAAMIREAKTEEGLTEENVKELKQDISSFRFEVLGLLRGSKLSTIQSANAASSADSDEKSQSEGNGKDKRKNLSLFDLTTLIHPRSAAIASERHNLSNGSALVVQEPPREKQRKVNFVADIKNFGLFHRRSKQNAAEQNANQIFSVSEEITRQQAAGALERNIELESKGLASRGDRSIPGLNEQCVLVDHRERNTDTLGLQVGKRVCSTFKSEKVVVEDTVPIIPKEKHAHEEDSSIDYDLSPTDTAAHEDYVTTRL
# [2] = HEp-2 cell cytotoxicity, dose response, cytotoxicity control for RSV inhibitor project, HTS (AID 2410); assay type: functional; details: human respiratory syncytial virus
# [3] = biological target: Eukaryotic translation initiation factor 4E (Mus musculus, UniProt P63073); assay: eIF4E–eIF4G protein interaction inhibitors, dose response, biochemical, TR-FRET (AID 855); assay type: functional;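 note: potency for disrupting eIF4E binding to eIF4GI seen as loss of FRET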
# Eukaryotic translation initiation factor 4E, sequence (P63073 whole entry): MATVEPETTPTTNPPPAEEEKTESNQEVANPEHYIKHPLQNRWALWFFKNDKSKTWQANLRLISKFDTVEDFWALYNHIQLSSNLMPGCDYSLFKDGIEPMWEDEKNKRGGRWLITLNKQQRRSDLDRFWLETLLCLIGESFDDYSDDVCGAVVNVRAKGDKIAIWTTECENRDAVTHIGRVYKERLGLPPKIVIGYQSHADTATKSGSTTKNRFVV
# [4] = biological target: T2, Ubiquitin-conjugating enzyme E2 N (Homo sapiens, UniProt P61088); assay type: functional;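 note: Dose-response confirmation in a TR-FRET assay detecting UBC13-driven polyubiquitin chain formation, inhibition measured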
# T2 sequence (P61088 whole entry): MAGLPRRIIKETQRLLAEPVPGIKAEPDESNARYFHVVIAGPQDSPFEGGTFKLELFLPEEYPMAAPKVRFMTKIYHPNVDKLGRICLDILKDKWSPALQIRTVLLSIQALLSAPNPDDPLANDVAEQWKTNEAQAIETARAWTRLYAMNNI
# [5] = biological target: T3, Acyl-homoserine lactone acylase PvdQ (Pseudomonas aeruginosa (strain LESB58), UniProt Q9I194); assay: P. aeruginosa PvdQ acylase inhibitors, dose response, biochemical, fluorescence, plate reader and imaging, cherry-picks (AID 493231)
# T3 sequence (Q9I194 whole entry): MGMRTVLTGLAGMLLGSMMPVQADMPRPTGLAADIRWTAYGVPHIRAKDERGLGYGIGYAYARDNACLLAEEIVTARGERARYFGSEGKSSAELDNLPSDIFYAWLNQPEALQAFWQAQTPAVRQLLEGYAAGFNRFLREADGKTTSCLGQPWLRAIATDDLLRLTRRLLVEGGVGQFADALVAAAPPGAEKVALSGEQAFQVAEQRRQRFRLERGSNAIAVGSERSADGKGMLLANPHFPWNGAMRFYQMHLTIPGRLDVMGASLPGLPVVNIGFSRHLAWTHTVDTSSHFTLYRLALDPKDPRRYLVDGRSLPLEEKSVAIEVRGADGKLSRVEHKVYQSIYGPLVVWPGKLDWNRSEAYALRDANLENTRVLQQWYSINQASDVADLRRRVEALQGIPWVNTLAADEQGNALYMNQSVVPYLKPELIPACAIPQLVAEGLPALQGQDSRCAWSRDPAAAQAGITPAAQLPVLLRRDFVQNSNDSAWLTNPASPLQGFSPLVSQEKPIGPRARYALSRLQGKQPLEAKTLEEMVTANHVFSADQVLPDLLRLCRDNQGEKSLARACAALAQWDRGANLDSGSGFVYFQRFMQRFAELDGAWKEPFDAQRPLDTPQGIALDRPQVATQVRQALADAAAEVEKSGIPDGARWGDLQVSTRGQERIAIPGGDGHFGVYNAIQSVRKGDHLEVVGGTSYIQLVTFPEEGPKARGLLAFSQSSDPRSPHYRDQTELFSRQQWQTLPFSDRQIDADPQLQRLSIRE
# [6] = biological target: G-protein coupled receptor 55 (Homo sapiens, UniProt Q9Y2T6); assay: GPR55 agonists via beta-arrestin recruitment, primary screen, imaging, U2OS cells, beta-arrestin-GFP redistribution (AID 1961); assay type: functional
# G-protein coupled receptor 55, sequence (Q9Y2T6 whole entry): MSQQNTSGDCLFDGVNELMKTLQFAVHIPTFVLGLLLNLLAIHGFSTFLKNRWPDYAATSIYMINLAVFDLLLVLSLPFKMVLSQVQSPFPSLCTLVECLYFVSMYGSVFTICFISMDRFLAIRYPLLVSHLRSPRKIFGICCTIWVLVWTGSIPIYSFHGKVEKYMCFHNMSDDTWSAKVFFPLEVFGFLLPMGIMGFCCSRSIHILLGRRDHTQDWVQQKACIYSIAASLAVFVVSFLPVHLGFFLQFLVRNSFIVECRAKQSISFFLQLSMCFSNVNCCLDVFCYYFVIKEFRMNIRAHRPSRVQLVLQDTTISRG
# INS1 = assay: beta cell apoptosis inhibitors, cytokine rescue, dose response, luminescence, retest (AID 449756); assay type: functional, cell-based; details: Rattus norvegicus;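 note: cell death triggered by IL-1 beta plus TNF-alpha plus IFN-gamma mixture; protective hits raise ATP signal compared with cytokine alone wells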
# [7] = inhibitors of firefly luciferase expression or activity, dose response, H4 neuroglioma cells, luminescence (AID 1990); assay type: functional, cell-based
# [8] = NIH-3T3 fibroblast cytotoxicity, dose response, cytotoxicity control, cell-based, fluorescence, Alamar Blue, secondary assay (AID 2327); assay type: functional;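 note: NIH-3T3 mouse fibroblasts cultured with fluconazole at 8 µg/mL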
# [9] = inhibitors of SNCA 5'UTR-driven reporter translation, confirmation, H4 neuroglioma cells, luminescence (AID 1988); assay type: functional, cell-based
# [10] = Luminescence Cell-Based Dose Response HTS to Identify Inhibitors of 5'UTR Stem-Loop Driven Prion Protein mRNA Translation in H4 Neuroglioblastoma Cells. [Related pubchem assays: 1827 (Project Summary), 1813 (Primary HTS)]; assay type: functional
# Streptokinase A = biological target: T4, Streptokinase A (Streptococcus pyogenes serotype M1, UniProt P10520); assay: S. pyogenes streptokinase expression inhibitors, potency, dose response, plasminogen activation absorbance, OD405 (AID 1914); assay type: functional, Streptococcus pyogenes M1 GAS;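 note: secreted streptokinase activity via plasminogen activation per viability signal from cell pellet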
# T4 sequence (P10520 whole entry): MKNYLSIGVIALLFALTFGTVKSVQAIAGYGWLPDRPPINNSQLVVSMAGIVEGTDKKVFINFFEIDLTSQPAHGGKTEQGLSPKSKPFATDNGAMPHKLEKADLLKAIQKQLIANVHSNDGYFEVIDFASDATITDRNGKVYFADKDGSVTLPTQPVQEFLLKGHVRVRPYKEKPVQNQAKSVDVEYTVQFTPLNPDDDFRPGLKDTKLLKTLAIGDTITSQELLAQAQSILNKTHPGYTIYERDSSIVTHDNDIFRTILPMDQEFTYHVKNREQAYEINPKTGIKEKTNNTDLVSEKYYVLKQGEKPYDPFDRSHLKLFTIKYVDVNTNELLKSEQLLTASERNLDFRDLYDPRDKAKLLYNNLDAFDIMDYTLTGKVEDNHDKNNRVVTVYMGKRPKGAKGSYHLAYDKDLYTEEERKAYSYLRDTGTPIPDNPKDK
# [11] = system: Streptococcus sp. 'group A'; assay: growth inhibition of control SK(-) GAS strain, dose response, counter-screen for streptokinase expression inhibitor project, luminescence, kanamycin, BacTiterGlo, confirmation (AID 1900); assay type: functional, organism-based
# Nonstructural protein 1 = Nonstructural protein 1 (Influenza A virus, UniProt Q194T2); assay type: functional, Influenza A virus (A/California/07/2009(H1N1))
# Nonstructural protein 1, sequence (Q194T2 whole entry): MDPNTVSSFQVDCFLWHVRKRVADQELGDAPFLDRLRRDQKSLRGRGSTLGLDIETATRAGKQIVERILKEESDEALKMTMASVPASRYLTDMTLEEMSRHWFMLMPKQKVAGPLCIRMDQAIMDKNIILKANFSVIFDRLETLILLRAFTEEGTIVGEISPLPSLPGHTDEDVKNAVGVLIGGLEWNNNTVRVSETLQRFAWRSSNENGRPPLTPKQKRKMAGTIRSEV
# [12] = C. albicans growth with fluconazole, confirmation, fluorescence, retest (AID 2467); assay type: functional, cell-based
# Streptococcus = assay: Group A Streptococcus viability loss, dose response, counter-screen for streptokinase expression inhibitor project, luminescence, BacTiterGlo (AID 1915); assay type: functional, organism-based;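 note: potency for reduction of bacterial viability or growth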
# [13] = biological target: T5, Heat shock factor protein 1 (Mus musculus, UniProt P38532); assay: inhibition of MG132-induced HSE-luciferase signal, confirmation, cell-based, NIH3T3, luminescence, dose retest (AID 2382); assay type: functional;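 note: NIH3T3 fibroblasts with HSF1-driven luciferase reporter stressed by proteasome inhibitor MG132; luminescence from HSF1-driven luciferase expression after 8 hours of MG132 stress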
# T5 sequence (P38532 whole entry): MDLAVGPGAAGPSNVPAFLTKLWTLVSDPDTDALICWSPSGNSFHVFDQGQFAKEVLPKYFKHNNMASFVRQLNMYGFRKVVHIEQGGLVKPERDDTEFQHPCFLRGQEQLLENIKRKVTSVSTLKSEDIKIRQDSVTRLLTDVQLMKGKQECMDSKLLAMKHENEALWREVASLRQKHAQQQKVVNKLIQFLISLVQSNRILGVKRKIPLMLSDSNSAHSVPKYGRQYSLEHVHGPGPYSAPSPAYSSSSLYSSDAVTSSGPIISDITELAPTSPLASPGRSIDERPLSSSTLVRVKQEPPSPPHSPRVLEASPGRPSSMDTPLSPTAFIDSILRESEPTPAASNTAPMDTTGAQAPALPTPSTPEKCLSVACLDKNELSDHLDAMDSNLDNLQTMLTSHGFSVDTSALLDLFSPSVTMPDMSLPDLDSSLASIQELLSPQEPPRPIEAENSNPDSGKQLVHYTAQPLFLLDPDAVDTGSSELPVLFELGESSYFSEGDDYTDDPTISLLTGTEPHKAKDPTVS
# [14] = biological target: Luciferin 4-monooxygenase (Photinus pyralis, UniProt P08659); assay: firefly luciferase enzyme inhibitors, dose response, biochemical, luminescence (AID 1891)
# Luciferin 4-monooxygenase, sequence (P08659 whole entry): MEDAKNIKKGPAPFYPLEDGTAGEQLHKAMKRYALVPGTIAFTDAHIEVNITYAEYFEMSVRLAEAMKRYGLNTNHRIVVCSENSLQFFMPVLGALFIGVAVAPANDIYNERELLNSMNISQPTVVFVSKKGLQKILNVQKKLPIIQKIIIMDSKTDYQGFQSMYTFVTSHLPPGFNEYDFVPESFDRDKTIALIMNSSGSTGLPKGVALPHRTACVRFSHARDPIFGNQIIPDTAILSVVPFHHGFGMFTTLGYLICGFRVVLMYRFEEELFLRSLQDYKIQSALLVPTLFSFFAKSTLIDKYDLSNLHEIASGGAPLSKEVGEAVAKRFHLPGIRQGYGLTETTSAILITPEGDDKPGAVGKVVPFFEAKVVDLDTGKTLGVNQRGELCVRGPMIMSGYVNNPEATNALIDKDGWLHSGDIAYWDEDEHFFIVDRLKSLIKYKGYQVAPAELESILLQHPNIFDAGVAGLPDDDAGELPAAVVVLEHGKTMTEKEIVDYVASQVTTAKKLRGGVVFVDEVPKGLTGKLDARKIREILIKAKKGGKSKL
# Paired box protein Pax-8 = Paired box protein Pax-8 (Homo sapiens, UniProt Q06710); assay: inhibitors of PAX8-driven TPO luciferase reporter, dose response, RMG-I cells, cherry-pick (AID 687027); assay type: functional, cell-based;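 note: luciferase reporter driven by Pax8 target thyroperoxidase promoter measured by SteadyGlo luminescence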
# Paired box protein Pax-8, sequence (Q06710 whole entry, the tested form may be a part): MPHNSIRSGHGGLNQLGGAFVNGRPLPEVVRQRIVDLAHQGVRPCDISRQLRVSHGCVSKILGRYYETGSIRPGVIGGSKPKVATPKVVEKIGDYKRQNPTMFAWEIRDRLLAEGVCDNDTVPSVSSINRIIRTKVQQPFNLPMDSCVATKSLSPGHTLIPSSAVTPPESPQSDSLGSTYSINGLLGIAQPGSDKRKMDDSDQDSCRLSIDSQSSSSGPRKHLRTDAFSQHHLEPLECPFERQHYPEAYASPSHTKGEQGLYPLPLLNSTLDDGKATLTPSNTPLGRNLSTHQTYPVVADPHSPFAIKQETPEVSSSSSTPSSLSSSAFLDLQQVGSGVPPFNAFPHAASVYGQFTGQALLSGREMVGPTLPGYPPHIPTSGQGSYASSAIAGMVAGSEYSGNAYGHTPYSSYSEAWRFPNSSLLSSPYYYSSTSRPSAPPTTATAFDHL
# [15] = biological target: Nucleotide-binding oligomerization domain-containing protein 2 (Homo sapiens, UniProt Q9HC29); assay: NOD2 signaling inhibitors, cell-based, luminescence, uHTS, HEK293 (AID 1566); assay type: functional
# Nucleotide-binding oligomerization domain-containing protein 2, sequence (Q9HC29 whole entry, the tested form may be a part): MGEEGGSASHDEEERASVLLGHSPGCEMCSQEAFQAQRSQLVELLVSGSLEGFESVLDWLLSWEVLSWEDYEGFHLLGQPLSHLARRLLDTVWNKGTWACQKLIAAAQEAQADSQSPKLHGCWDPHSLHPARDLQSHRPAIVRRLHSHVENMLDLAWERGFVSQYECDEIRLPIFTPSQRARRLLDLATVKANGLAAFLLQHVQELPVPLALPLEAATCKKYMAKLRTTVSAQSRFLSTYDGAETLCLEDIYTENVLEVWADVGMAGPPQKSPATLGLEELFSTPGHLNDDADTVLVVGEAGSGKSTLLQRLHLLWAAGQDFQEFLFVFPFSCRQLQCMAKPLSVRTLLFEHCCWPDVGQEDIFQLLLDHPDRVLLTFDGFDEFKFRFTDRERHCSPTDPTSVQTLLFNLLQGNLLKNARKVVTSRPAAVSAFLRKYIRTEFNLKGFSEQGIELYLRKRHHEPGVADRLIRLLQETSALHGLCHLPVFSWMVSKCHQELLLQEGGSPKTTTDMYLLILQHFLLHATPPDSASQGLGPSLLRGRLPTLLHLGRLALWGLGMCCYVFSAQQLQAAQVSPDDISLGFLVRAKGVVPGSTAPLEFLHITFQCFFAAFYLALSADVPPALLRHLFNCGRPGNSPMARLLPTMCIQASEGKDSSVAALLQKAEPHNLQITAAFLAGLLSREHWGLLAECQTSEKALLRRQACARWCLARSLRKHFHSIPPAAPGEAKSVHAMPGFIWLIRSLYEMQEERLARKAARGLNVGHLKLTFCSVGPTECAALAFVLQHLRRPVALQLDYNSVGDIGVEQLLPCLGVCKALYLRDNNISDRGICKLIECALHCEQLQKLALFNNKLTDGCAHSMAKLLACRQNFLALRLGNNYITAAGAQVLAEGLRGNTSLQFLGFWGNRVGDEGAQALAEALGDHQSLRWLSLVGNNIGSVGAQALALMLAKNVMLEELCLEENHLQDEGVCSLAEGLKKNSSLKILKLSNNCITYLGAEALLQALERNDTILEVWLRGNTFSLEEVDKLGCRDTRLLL
# HEK293 = assay: cells; assay type: functional, cell-based; details: Homo sapiens
# [16] = cytotoxicity in HEK-293T cells, dose response, cytotoxicity control for BCR NF-kB inhibitor project, luminescence, B-cell screen hits (AID 489021); assay type: functional, cell-based;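 note: HEK-293T cells carrying an NF-kB luciferase reporter; cells exposed to compound for about 14 hours before viability readout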
# [17] = biological target: T6, Nuclear receptor subfamily 0 group B member 1 (Homo sapiens, UniProt P51843); assay: Luminescence-based cell-based high throughput dose response assay for inhibitors of the orphan nuclear receptor subfamily 0, group B, member 1 (DAX1; NR0B1). [Related pubchem assays (depositor defined):AID504766, AID504790]; assay type: functional
# T6 sequence (P51843 whole entry): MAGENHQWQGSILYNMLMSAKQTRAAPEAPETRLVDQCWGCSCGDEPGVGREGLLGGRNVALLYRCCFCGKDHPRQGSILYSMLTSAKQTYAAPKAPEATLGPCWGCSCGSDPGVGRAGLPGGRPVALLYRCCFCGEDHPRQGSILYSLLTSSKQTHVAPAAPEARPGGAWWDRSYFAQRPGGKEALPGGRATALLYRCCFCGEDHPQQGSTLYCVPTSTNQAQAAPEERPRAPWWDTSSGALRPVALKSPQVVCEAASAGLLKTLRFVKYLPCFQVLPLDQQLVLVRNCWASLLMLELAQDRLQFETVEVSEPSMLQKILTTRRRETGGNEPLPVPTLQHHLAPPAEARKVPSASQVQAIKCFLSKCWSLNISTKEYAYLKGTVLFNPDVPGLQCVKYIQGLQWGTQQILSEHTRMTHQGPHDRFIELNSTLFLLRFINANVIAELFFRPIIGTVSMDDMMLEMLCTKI
compound,measurement,setting,value
COc1cc(CNC2CCCC2)c(Br)cc1OC1CCCC1,EC50,[1],0.0373 µM (active)
Cc1ccc(Nc2cc(C)nc3ccc(C)cc23)cc1,CC50,[2],45.9 µM (active)
same,EC50,[1],1.5 µM (active)
Cc1ccc(-c2csc(NC(=O)CSc3nc4ccccc4c(=O)n3CCCN(C)C)n2)cc1,IC50,[3],50 µM (inactive)
same,IC50,[4],> 20 µM (inactive)
N#Cc1cc(-c2ccccc2)cnc1Cl,AC50,[5],6.29 µM (active)
Sc1nnc(-c2ccco2)n1/N=C/c1ccc(Cl)cc1Cl,IC50,[3],> 64 µM (inactive)
CC(C)C[C@@H](CSc1ccccc1)N1CCN(CCc2ccccc2)CCC1=O,EC50,[6],6.56 µM (active)
O=C1C=C(c2cccc(Br)c2)C[C@@H](c2ccc(F)cc2)C1,AC50,[5],48.9 µM (active)
CCN(CC)C(=O)CC(c1ccc(N(C)C)cc1)c1c(OC)cc(OC)c2c(-c3ccccc3)cc(=O)oc12 (centres undefined),EC50,[6],2.74 µM (active)
COc1cccc(/C=N/Nc2cc(N3CCOCC3)ncn2)c1O,AC50,INS1,3.04 µM (active)
same,EC50,[7],8.79 µM (active)
same,EC50,[8],> 150 µM (inactive)
same,EC50,[9],4.5 µM (active)
same,EC50,[10],4.01 µM (active)
same,EC50,Streptokinase A,> 150 µM (not active)
same,EC50,[11],9.07 µM (active)
same,IC50,Nonstructural protein 1,5.96 µM (active)
same,EC50,[12],5.78 µM (active)
same,EC50,Streptococcus,9.45 µM (active)
COc1ccc(N(Cc2cc3cc(OC)ccc3[nH]c2=O)S(=O)(=O)c2ccc(NC(C)=O)cc2)cc1,EC50,[13],0.309 µM (active)
same,EC50,[14],> 112 µM (not active)
same,AC50,Paired box protein Pax-8,1.29 µM (active)
same,EC50,[15],> 20 µM (inactive)
N=c1sccn1CC(=O)Nc1ccccc1Oc1ccccc1,EC50,[1],5.96 µM (active)
Cc1ccc2cc(CN(CCCN3CCOCC3)C(c3nnnn3Cc3ccco3)C(C)C)c(O)nc2c1C (centres undefined),EC50,[1],0.473 µM (active)
O=C1C2C3C=CC(C4CC34)C2C(=O)N1Cc1ccco1 (centres undefined),AC50,[5],12.4 µM (active)
O=C(O)CCc1nc(-c2ccc(Cl)cc2)no1,AC50,[5],16.1 µM (active)
Cn1c(=O)n(C)c2cc(C(=O)Nc3ccc4c(c3)OCO4)ccc21,IC50,HEK293,> 67.5 µM (inactive)
same,IC50,[16],> 80 µM (inactive)
same,IC50,[17],4.57 µM (active)
Oc1c(Cl)cc(Cl)cc1/C=N/c1ccccc1N1CCCC1,CC50,[2],20.9 µM (active)
same,EC50,[6],> 32 µM (inactive)
COc1ccccc1NS(=O)(=O)c1ccc(NN=C2CCCC2)c([N+](=O)[O-])c1,IC50,[3],> 64 µM (inactive)
